According to patent US7902373B2 (Pfizer Inc, priority 2006, dated 2011):

The compounds below were run against human recombinant H-PGDS (Homo sapiens, UniProt O60760) (assay: Fluorescence intensity h-PGDS TBA enzyme assay). Conditions: Examples up to 622 (and 3a, 3b).
Format: biochemical

Chain of human recombinant H-PGDS (O60760 whole entry): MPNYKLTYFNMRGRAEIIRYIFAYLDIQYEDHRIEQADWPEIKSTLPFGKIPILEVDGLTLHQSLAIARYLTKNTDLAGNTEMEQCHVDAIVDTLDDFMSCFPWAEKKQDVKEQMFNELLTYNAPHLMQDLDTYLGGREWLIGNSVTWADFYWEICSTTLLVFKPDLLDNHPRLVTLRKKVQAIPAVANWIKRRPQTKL

IC50 [nM] | Compound
5.43 | CC(C)(C)OC(=O)N1C[C@H](O)[C@H](NC(=O)c2ccc(-c3cccc(F)c3)nc2)C1 (relative stereo) [Example 609, cis-tert-Butyl 3-({[6-(3-fluorophenyl)pyridin-3-yl]carbonyl}amino)-4-hydroxypyrrolidine-1-carboxylate]
6.92 | CC(C)(C)OC(=O)N1C[C@@H](O)[C@H](NC(=O)c2ccc(-c3cccc(F)c3)nc2)C1 (relative stereo) [Example 610, Trans-tert-Butyl 3-({[6-(3-fluorophenyl)pyridin-3-yl]carbonyl}amino)-4-hydroxypyrrolidine-1-carboxylate]
12 | CC(C)(C)C(=O)N1C[C@@H](O)[C@H](NC(=O)c2ccc(-c3cccc(F)c3)nc2)C1 (relative stereo) [Example 612, Trans-N-[1-(2,2-dimethylpropanoyl)-4-hydroxypyrrolidin-3-yl]-6-(3-fluorophenyl)nicotinamide]
3.57 | O=C(N[C@H]1CN(c2cnc3ccccc3n2)C[C@@H]1O)c1ccc(-c2cccc(F)c2)nc1 (relative stereo) [Example 613, trans-6-(3-Fluorophenyl)-N-[4-hydroxy-1-quinoxalin-2-ylpyrrolidin-3-yl]nicotinamide]
52.5 | CCc1cn2nc(N3C[C@H](NC(=O)c4ccc(-c5cccc(F)c5)nc4)[C@@H](O)C3)ccc2n1 (relative stereo) [Example 614, Trans-N-[1-(2-ethylimidazo[12-b]pyridazin-6-yl)-4-hydroxypyrrolidin-3-yl]-6-(3-fluorophenyl)nicotinamide]
5.1 | Cc1cc(C)c(C#N)c(N2C[C@@H](O)[C@H](NC(=O)c3ccc(-c4cccc(F)c4)nc3)C2)n1 (relative stereo) [Example 615, Trans-N-[1-(3-cyano-4,6-dimethylpyridin-2-yl)-4-hydroxypyrrolidin-3-yl]-6-(3-fluorophenyl)nicotinamide]
5.12 | O=C(N[C@@H]1CN(c2nc3ccccc3o2)C[C@H]1O)c1ccc(-c2cccc(F)c2)nc1 (relative stereo) [Example 616, Trans-N-[1-(1,3-benzoxazol-2-yl)-4-hydroxypyrrolidin-3-yl]-6-(3-fluorophenyl)nicotinamide]
4.1 | Cc1ccc(C#N)c(N2C[C@H](NC(=O)c3ccc(-c4cccc(F)c4)nc3)[C@@H](O)C2)n1 (relative stereo) [Example 617]
7.33 | O=C(N[C@@H]1CN(c2ncc3ccc(F)cc3n2)C[C@H]1O)c1ccc(-c2cccc(F)c2)nc1 (relative stereo) [Example 618, Trans-6-(3-fluorophenyl)-N-[1-(7-fluoroquinazolin-2-yl)-4-hydroxypyrrolidin-3-yl]nicotinamide]
1.19 | O=C(N[C@@H]1CN(c2nnnn2-c2ccccc2)C[C@H]1O)c1ccc(-c2cccc(F)c2)nc1 (relative stereo) [Example 619, Trans-6-(3-fluorophenyl)-N-[4-hydroxy-1-(1-phenyl-1H-tetrazol-5-yl)pyrrolidin-3-yl]nicotinamide]
0.69 | CCC(CO)n1cnc2c(N3CCC(NC(=O)c4ccc(-c5cccc(F)c5)nc4)CC3)ncnc21 (single isomer, unassigned) [Example 581, 6-(3-Fluorophenyl)-N-(1-{9-[1-(hydroxymethyl)propyl]-9H-purin-6-yl}piperidin-4-yl)nicotinamide]
1.22 | CCC(CO)n1cnc2c(N3CCC(NC(=O)c4ccc(-c5cccc(F)c5)nc4)CC3)ncnc21 (single isomer, unassigned) [Example 582, 6-(3-Fluorophenyl)-N-(1-{9-[1-(hydroxymethyl)propyl]-9H-purin-6-yl}piperidin-4-yl)nicotinamide]
0.204 | O=C(NC1CCN(CC(F)(F)F)CC1)c1ccc(-c2ccccc2)nc1 [Example 1, 6-Phenyl-N-(1-(2,2,2-trifluoroethyl)piperidin-4-yl)nicotinamide]
0.343 | O=C(NC1CCN(c2ccc(C(=O)N3CCOCC3)cn2)CC1)c1ccc(-c2cccc(F)c2)nc1 [Example 3, 6-(3-Fluorophenyl)-N-{1-[5-(morpholin-4-ylcarbonyl)pyridin-2-yl]piperidin-4-yl}nicotinamide]
6.86 | CN1CCC(NC(=O)c2ccc(-c3ccccc3)nc2)CC1 [Example 3a, N-(1-Methylpiperidin-4-yl)-6-phenylnicotinamide]
0.403 | CCOC(=O)N1CCC(NC(=O)c2ccc(-c3ccccc3)nc2)CC1 [Example 3b, Ethyl 4-{[(6-phenylpyridin-3-yl)carbonyl]amino}piperidine-1-carboxylate]
2.58 | CC(C)N1CCC(NC(=O)c2ccc(-c3ccccc3)nc2)CC1 [Example 4, N-(1-Isopropylpiperidin-4-yl)-6-phenylnicotinamide]
0.665 | O=C(NC1CCN(Cc2ccccn2)CC1)c1ccc(-c2ccccc2)nc1 [Example 5, 6-Phenyl-N-[1-(pyridin-2-ylmethyl)piperidin-4-yl]nicotinamide]
0.377 | O=C(NC1CCN(CC2CCOCC2)CC1)c1ccc(-c2ccccc2)nc1 [Example 6, 6-Phenyl-N-[1-(tetrahydro-2H-pyran-4-ylmethyl)piperidin-4-yl]nicotinamide]
0.351 | CC(C)(C)C(=O)N1CCC(NC(=O)c2ccc(-c3ccccc3)nc2)CC1 [Example 7, N-[1-(2,2-Dimethylpropanoyl)piperidin-4-yl]-6-phenylnicotinamide]
1.57 | O=C(NC1CCN(Cc2ccccc2)CC1)c1ccc(-c2ccccc2)nc1 [Example 8, N-(1-Benzylpiperidin-4-yl)-6-phenylnicotinamide]
23.6 | O=C(NC1CCN(CC(F)(F)F)CC1)c1ccc(-c2ccc(F)cc2)nc1 [Example 9, 6-(4-Fluorophenyl)-N-(1-(2,2,2-trifluoroethyl)piperidin-4-yl)nicotinamide]

IC50 [nM] | Compound
78.4 | CCCC(=O)N1CCC(NC(=O)c2ccc(-c3ccc(F)cc3)nc2)CC1 [Example 10, N-(1-Butyrylpiperidin-4-yl)-6-(4-fluorophenyl)nicotinamide]
39.4 | O=C(NC1CCN(Cc2ccccn2)CC1)c1ccc(-c2ccc(F)cc2)nc1 [Example 11, 6-(4-Fluorophenyl)-N-[1-(pyridin-2-ylmethyl)piperidin-4-yl]nicotinamide]
694 | CN1CCC(NC(=O)c2ccc(-c3ccc(F)cc3)nc2)CC1 [Example 12, 6-(4-Fluorophenyl)-N-(1-methylpiperidin-4-yl)nicotinamide]
58 | O=C(NC1CCN(Cc2ccccc2)CC1)c1ccc(-c2ccc(F)cc2)nc1 [Example 13, N-(1-Benzylpiperidin-4-yl)-6-(4-fluorophenyl)nicotinamide]
4.29 | COc1cccc(-c2ccc(C(=O)NC3CCN(CC(F)(F)F)CC3)cn2)c1 [Example 14, 6-(3-Methoxyphenyl)-N-(1-(2,2,2-trifluoroethyl)piperidin-4-yl)nicotinamide]
2.91 | COc1cccc(-c2ccc(C(=O)NC3CCN(Cc4ccccn4)CC3)cn2)c1 [Example 15, 6-(3-Methoxyphenyl)-N-[1-(pyridin-2-ylmethyl)piperidin-4-yl]nicotinamide]
146 | COc1cccc(-c2ccc(C(=O)NC3CCN(C)CC3)cn2)c1 [Example 16, 6-(3-Methoxyphenyl)-N-(1-methylpiperidin-4-yl)nicotinamide]
11.7 | COc1cccc(-c2ccc(C(=O)NC3CCN(Cc4ccccc4)CC3)cn2)c1 [Example 17, N-(1-Benzylpiperidin-4-yl)-6-(3-methoxyphenyl)nicotinamide]
3.94 | CCOC(=O)N1CCC(NC(=O)c2ccc(-c3cccc(OC)c3)nc2)CC1 [Example 18, Ethyl 4-({[6-(3-methoxyphenyl)pyridin-3-yl]carbonyl}amino)piperidine-1-carboxylate]
36.2 | CCCC(=O)N1CCC(NC(=O)c2ccc(-c3cccc(OC)c3)nc2)CC1 [Example 19, N-(1-Butyrylpiperidin-4-yl)-6-(3-methoxyphenyl)nicotinamide]
1000 | COc1cccc(-c2ccc(C(=O)NC3CCN(C(C)C)CC3)cn2)c1 [Example 20, N-(1-Isopropylpiperidin-4-yl)-6-(3-methoxyphenyl)nicotinamide]
0.898 | Cc1cccc(-c2ccc(C(=O)NC3CCN(CC(F)(F)F)CC3)cn2)c1 [Example 21, 6-m-Tolyl-N-(1-(2,2,2-trifluoroethyl)piperidin-4-yl)nicotinamide]
73.3 | Cc1cccc(-c2ccc(C(=O)NC3CCN(C)CC3)cn2)c1 [Example 22, 6-(3-Methylphenyl)-N-(1-methylpiperidin-4-yl)nicotinamide]
1.72 | Cc1cccc(-c2ccc(C(=O)NC3CCN(Cc4ccccc4)CC3)cn2)c1 [Example 23, N-(1-Benzylpiperidin-4-yl)-6-(3-methylphenyl)nicotinamide]
2.64 | CCCC(=O)N1CCC(NC(=O)c2ccc(-c3cccc(C)c3)nc2)CC1 [Example 24, N-(1-Butyrylpiperidin-4-yl)-6-(3-methylphenyl)nicotinamide]
7.66 | Cc1cccc(-c2ccc(C(=O)NC3CCN(C(C)C)CC3)cn2)c1 [Example 25, N-(1-Isopropylpiperidin-4-yl)-6-(3-methylphenyl)nicotinamide]
19.1 | CN1CCC(NC(=O)c2ccc(-c3cccc(F)c3)nc2)CC1 [Example 27, 6-(3-Fluorophenyl)-N-(1-methylpiperidin-4-yl)nicotinamide]
1.72 | O=C(NC1CCN(Cc2ccccn2)CC1)c1ccc(-c2cccc(F)c2)nc1 [Example 28, 6-(3-Fluorophenyl)-N-[1-(pyridin-2-ylmethyl)piperidin-4-yl]nicotinamide]
0.946 | O=C(NC1CCN(Cc2ccccc2)CC1)c1ccc(-c2cccc(F)c2)nc1 [Example 29, N-(1-Benzylpiperidin-4-yl)-6-(3-fluorophenyl)nicotinamide]
3.79 | CC(C)N1CCC(NC(=O)c2ccc(-c3cccc(F)c3)nc2)CC1 [Example 30, 6-(3-Fluorophenyl)-N-(1-isopropylpiperidin-4-yl)nicotinamide]
19.9 | CCCC(=O)N1CCC(NC(=O)c2ccc(-c3cccc(F)c3)nc2)CC1 [Example 31, N-(1-Butyrylpiperidin-4-yl)-6-(3-fluorophenyl)nicotinamide]
